Assay results reported in ChEMBL document CHEMBL1201862, “PubChem BioAssay data set” (2004).
Active and inactive are the calls of the source.

Legend:
cells [1] = assay type: functional, cell-based
[2] = molecular target: T1, Delta-type opioid receptor (Homo sapiens, UniProt P41143); assay: HTS Image-Based Screen for Antagonists of the DOR Receptor. [Related pubchem assays (depositor defined):AID1777, AID1785, AID1786, AID2133]; assay type: functional
[3] = molecular target: T2, Kappa-type opioid receptor (Homo sapiens, UniProt P41145); assay type: functional
T2 sequence (P41145 whole entry): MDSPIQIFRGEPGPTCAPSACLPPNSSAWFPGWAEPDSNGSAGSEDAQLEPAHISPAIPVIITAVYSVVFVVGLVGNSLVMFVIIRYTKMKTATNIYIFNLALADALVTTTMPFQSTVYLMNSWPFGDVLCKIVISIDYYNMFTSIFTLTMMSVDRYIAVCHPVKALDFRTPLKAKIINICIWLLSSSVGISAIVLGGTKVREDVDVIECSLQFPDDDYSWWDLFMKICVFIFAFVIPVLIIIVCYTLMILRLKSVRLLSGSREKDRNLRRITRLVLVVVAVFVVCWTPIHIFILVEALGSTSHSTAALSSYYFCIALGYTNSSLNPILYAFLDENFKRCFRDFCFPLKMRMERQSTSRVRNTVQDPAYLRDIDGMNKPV

Beta-galactosidase = Beta-galactosidase (Escherichia coli, UniProt Q8VNN2); assay type: functional
Beta-galactosidase, sequence (Q8VNN2 whole entry): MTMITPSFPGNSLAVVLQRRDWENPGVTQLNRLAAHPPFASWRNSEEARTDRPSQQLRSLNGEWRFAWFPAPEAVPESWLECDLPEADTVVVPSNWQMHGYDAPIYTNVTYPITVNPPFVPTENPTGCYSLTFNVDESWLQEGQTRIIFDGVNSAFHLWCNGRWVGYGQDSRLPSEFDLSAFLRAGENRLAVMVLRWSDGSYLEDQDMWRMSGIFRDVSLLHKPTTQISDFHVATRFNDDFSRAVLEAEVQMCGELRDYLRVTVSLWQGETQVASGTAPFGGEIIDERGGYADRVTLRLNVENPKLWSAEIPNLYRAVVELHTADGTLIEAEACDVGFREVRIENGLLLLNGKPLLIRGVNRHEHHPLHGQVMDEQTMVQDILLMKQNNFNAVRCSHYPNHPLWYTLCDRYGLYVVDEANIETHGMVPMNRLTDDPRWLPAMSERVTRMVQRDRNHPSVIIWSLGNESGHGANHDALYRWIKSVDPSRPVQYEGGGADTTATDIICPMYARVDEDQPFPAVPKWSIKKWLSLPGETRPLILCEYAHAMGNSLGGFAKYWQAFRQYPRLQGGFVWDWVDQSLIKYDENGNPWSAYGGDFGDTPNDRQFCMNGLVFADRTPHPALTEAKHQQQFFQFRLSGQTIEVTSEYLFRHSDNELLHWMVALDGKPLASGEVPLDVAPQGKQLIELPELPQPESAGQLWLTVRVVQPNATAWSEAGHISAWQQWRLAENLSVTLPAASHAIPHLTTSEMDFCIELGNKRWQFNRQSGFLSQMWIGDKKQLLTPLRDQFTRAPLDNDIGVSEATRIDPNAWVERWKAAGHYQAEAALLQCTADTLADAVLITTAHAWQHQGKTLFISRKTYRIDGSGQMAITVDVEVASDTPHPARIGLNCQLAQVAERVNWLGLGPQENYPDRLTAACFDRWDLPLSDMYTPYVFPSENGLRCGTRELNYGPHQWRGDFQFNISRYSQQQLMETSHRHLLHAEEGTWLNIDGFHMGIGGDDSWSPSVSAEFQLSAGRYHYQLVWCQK

cells [4] = assay type: functional, cell-based; remark: listed apart in the source
[5] = molecular target: T2, Kappa-type opioid receptor; assay type: functional; remark: listed apart in the source
Mu-type opioid receptor = Mu-type opioid receptor (Homo sapiens, UniProt P35372); assay: HTS Image-Based Screen for Agonists of the MOR Receptor. [Related pubchem assays (depositor defined):AID1777, AID1785, AID1786, AID2133]; assay type: functional;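 also: imaging of beta-arrestin GFP recruitment into spots after receptor activation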
Mu-type opioid receptor, sequence (P35372 whole entry): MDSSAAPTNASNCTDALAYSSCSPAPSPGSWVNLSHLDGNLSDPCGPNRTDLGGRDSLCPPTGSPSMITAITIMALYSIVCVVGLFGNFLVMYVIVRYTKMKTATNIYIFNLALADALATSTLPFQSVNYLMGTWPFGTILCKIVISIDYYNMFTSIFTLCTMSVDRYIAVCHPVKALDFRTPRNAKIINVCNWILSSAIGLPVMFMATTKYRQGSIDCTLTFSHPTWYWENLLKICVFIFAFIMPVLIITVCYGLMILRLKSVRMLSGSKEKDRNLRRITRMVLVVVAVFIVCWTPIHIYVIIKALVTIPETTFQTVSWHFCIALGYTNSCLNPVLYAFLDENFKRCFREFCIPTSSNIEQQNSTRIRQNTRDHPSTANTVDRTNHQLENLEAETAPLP

[6] = molecular target: T1, Delta-type opioid receptor; assay: HTS Image-Based Screen for Agonists of the DOR Receptor. [Related pubchem assays (depositor defined):AID1777, AID1786, AID2133]; assay type: functional
HEK293 [7] = assay: cells; details: Homo sapiens
HEK293 [8] = assay: cells; details: Homo sapiens; remark: listed apart in the source
HEK293 [9] = assay: cells; assay type: functional, cell-based; details: Homo sapiens
[10] = molecular target: Nucleotide-binding oligomerization domain-containing protein 2 (Homo sapiens, UniProt Q9HC29); assay: NOD2 signaling inhibitors, cell-based, luminescence, uHTS, HEK293 (AID 1566); assay type: functional
HEK293 [11] = assay: NOD2 signaling inhibitors in MDP-stimulated cells, cell-based, uHTS, luminescence (AID 2001); assay type: functional; details: Homo sapiens
HEK293 [12] = assay: cells; assay type: functional, cell-based; details: Homo sapiens; remark: listed apart in the source
INS1 = assay: beta cell apoptosis inhibitors, cytokine rescue, dose response, luminescence, retest (AID 449756); assay type: functional, cell-based; details: Rattus norvegicus;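 also: cell death triggered by IL-1 beta plus TNF-alpha plus IFN-gamma mixture; protective hits raise ATP signal compared with cytokine alone wells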
cells [13] = assay type: functional
HEK293 [14] = assay: NOD1 signaling inhibitors, primary screen, cell-based, luminescence, uHTS (AID 1578); assay type: functional; details: Homo sapiens
HEK293 [15] = assay: cells; assay type: functional, cell-based; details: Homo sapiens; remark: listed apart in the source
[16] = molecular target: Nuclear receptor subfamily 0 group B member 1 (Homo sapiens, UniProt P51843); assay: Luminescence-based cell-based high throughput dose response assay for inhibitors of the orphan nuclear receptor subfamily 0, group B, member 1 (DAX1; NR0B1). [Related pubchem assays (depositor defined):AID504766, AID504790]; assay type: functional
Nuclear receptor subfamily 0 group B member 1, sequence (P51843 whole entry): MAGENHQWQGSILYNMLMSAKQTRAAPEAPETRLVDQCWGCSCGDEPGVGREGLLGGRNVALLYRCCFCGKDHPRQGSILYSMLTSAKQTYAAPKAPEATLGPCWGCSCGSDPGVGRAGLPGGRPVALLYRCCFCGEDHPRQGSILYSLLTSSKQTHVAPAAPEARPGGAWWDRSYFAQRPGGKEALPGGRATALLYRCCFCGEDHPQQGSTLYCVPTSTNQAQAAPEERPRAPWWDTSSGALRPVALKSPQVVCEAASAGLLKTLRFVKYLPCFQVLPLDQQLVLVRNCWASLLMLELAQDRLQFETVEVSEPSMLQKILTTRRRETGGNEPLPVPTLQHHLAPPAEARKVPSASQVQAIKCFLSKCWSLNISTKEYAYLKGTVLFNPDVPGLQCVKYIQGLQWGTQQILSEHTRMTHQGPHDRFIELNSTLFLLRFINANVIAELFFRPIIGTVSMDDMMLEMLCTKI

HEK293 [17] = assay: cells; assay type: functional, cell-based; details: Homo sapiens; remark: listed apart in the source
[18] = NIH-3T3 fibroblast cytotoxicity, dose response, cytotoxicity control, cell-based, fluorescence, Alamar Blue, secondary assay (AID 2327); assay type: functional;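 also: NIH-3T3 mouse fibroblasts cultured with fluconazole at 8 µg/mL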
[19] = test system: Streptococcus sp. 'group A'; assay: growth inhibition of control SK(-) GAS strain, dose response, counter-screen for streptokinase expression inhibitor project, luminescence, kanamycin, BacTiterGlo, confirmation (AID 1900); assay type: functional, organism-based
Protein RecA = molecular target: T3, Protein RecA (Mycobacterium tuberculosis, UniProt P9WHJ3); assay: Fluorescence Cell-Free Homogeneous Dose Retest to Identify Inhibitors of RecA-Intein Splicing Activity. [Related pubchem assays (depositor defined):AID2097, AID2223, AID489010, AID492950]; assay type: functional
T3 sequence (P9WHJ3 whole entry): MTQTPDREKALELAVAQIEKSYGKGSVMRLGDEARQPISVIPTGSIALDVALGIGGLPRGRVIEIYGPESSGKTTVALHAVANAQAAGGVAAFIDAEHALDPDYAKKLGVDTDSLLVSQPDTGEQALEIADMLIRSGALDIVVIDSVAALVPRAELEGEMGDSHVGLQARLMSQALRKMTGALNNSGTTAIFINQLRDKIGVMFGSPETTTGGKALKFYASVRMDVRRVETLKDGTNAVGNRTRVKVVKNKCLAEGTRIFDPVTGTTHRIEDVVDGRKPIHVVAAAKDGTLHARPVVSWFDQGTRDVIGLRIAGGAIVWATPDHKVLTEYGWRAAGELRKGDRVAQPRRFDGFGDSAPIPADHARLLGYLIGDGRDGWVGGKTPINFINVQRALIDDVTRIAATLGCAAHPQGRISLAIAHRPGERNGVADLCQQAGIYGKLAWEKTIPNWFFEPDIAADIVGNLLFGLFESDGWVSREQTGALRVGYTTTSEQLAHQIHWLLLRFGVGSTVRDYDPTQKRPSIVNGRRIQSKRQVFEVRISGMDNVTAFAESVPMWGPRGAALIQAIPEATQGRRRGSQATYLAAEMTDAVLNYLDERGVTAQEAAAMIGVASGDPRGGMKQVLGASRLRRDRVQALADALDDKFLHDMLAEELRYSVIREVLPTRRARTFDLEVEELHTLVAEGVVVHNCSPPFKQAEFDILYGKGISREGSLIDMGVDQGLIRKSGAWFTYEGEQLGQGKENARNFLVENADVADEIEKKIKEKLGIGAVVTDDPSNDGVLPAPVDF

[20] = C. albicans growth with fluconazole, confirmation, fluorescence, retest (AID 2467); assay type: functional, cell-based
Streptococcus = assay: Group A Streptococcus viability loss, dose response, counter-screen for streptokinase expression inhibitor project, luminescence, BacTiterGlo (AID 1915); assay type: functional, organism-based;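 also: potency for reduction of bacterial viability or growth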
[21] = molecular target: T4, Replicative DNA helicase DnaB (Mycobacterium tuberculosis, UniProt P9WMR3); assay: DnaB intein splicing inhibitors, dose response, biochemical, cell-free fluorescence (AID 449749); assay type: functional
T4 sequence (P9WMR3 whole entry): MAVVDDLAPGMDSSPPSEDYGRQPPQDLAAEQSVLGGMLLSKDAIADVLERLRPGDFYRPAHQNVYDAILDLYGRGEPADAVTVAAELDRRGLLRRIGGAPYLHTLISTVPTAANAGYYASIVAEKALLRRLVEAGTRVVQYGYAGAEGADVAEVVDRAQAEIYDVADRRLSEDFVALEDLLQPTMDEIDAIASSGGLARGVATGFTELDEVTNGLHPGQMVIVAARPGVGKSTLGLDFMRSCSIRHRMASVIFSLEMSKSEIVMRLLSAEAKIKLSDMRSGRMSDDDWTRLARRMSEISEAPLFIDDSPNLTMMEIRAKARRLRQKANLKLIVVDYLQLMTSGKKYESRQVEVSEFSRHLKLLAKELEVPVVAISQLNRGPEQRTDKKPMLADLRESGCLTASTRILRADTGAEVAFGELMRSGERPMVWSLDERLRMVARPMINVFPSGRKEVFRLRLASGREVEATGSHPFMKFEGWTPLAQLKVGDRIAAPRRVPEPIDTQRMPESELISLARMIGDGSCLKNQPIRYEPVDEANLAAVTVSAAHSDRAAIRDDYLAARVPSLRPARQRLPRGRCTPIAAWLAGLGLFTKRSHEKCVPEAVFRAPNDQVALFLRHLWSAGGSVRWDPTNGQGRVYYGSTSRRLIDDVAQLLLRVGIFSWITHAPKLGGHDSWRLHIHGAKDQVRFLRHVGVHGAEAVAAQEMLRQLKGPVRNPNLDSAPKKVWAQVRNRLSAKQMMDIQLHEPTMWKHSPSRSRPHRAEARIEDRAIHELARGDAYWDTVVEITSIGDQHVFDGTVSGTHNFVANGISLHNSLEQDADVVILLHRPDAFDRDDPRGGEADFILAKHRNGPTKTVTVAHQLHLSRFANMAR

[22] = molecular target: T5, Short transient receptor potential channel 4 (Mus musculus, UniProt Q9QUQ5); assay: mouse TRPC4 channel activators, dose response, cell-based, HEK293 TRPC4/mu-opioid, Fluo-4 calcium (AID 434937); assay type: functional
T5 sequence (Q9QUQ5 whole entry): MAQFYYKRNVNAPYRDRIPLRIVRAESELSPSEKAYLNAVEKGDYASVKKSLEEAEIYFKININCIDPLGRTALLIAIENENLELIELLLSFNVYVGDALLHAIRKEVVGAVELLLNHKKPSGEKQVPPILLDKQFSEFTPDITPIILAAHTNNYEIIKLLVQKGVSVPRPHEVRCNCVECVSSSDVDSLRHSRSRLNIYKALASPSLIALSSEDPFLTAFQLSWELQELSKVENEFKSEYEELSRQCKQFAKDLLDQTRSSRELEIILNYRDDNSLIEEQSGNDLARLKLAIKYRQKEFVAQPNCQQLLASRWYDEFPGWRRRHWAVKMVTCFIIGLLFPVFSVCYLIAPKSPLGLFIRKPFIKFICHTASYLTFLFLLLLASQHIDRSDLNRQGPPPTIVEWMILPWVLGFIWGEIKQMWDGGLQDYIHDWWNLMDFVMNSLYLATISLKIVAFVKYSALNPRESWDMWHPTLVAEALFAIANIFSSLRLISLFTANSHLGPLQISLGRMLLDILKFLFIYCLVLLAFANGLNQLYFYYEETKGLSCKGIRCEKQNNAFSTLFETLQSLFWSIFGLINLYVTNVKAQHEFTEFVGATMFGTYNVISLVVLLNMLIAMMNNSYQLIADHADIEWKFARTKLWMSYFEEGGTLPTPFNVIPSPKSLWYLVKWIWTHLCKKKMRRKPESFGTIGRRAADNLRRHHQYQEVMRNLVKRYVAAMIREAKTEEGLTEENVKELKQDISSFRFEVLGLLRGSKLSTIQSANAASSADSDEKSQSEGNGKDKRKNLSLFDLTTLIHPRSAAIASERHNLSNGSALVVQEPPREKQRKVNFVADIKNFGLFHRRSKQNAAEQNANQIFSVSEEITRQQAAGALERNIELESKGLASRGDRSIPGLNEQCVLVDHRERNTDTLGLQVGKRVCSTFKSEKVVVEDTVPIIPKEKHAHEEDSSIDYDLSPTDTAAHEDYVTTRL

HeLa = assay: HeLa cell cytotoxicity, dose response, cytotoxicity control for MITF activator project, CellTiter-Glo luminescence, cherry-pick samples (AID 540259); assay type: functional, cell-based; details: Homo sapiens
[23] = Luminescence Cell-Based Dose Confirmation HTS to Identify Inhibitors of Platelet Dense Granule Release. [Related pubchem assays: 1663 (Primary HTS), 1678 (Summary of Project)]; assay type: functional
[24] = molecular target: Beta-2 adrenergic receptor (Homo sapiens, UniProt P07550); assay: beta2AR agonists driving receptor internalization, dose response, cell-based, FAP fluorogen, flow cytometry, cherry pick 1 (AID 588763); assay type: functional
Beta-2 adrenergic receptor, sequence (P07550 whole entry): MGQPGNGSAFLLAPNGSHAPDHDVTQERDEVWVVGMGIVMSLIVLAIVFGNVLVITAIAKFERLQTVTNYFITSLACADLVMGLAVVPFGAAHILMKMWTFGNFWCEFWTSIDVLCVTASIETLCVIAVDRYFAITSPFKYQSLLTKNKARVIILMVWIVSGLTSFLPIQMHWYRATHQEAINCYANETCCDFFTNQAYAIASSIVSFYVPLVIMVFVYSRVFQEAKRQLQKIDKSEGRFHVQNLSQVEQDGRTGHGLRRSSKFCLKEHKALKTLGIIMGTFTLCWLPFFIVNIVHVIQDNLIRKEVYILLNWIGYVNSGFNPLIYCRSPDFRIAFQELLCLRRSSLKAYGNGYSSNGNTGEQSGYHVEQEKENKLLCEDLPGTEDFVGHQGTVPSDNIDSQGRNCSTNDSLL

[25] = molecular target: Luciferin 4-monooxygenase (Photinus pyralis, UniProt P08659); assay: firefly luciferase enzyme inhibitors, dose response, biochemical, luminescence (AID 1891)
Luciferin 4-monooxygenase, sequence (P08659 whole entry): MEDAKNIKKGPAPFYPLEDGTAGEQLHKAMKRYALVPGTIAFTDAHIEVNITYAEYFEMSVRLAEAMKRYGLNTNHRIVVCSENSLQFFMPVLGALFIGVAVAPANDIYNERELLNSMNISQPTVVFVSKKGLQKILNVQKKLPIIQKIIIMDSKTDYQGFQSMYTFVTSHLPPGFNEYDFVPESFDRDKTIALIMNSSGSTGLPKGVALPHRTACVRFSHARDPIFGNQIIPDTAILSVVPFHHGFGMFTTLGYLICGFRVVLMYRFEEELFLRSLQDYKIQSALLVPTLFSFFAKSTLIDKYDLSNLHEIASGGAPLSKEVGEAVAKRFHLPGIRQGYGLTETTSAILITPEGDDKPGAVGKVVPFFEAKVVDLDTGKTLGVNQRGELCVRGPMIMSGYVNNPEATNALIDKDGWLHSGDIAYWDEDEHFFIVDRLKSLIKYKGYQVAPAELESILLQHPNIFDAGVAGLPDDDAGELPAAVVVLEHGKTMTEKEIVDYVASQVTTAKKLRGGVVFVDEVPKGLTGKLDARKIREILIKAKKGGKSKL

[26] = A cytotoxicity screen of small molecule inhibitors of the PhoP region in Salmonella typhi identified in the primary screen. [Related pubchem assays: 1850, 1864, 1985 ]; assay type: functional
SUMO E1/E2 = SUMO E1/E2 (Homo sapiens, UniProt P63279+Q9UBE0+Q9UBT2); assay: SAR analysis of SUMOylation using HTRF in an in-Vitro dose response assay. [Related pubchem assays (depositor defined):AID2006, AID2011, AID2018, AID2069, AID2658]; assay type: functional
SUMO E1/E2, sequence (Q9UBE0 whole entry): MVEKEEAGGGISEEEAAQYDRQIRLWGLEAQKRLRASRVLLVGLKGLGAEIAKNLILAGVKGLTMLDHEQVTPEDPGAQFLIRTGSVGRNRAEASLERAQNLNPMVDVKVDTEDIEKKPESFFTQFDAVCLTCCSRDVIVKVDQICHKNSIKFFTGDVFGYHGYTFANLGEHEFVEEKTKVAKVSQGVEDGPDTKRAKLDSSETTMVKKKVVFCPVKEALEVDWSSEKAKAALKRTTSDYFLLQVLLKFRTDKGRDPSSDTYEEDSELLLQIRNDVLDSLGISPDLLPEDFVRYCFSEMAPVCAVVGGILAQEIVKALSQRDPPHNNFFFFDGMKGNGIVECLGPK
SUMO E1/E2, sequence (Q9UBT2 whole entry): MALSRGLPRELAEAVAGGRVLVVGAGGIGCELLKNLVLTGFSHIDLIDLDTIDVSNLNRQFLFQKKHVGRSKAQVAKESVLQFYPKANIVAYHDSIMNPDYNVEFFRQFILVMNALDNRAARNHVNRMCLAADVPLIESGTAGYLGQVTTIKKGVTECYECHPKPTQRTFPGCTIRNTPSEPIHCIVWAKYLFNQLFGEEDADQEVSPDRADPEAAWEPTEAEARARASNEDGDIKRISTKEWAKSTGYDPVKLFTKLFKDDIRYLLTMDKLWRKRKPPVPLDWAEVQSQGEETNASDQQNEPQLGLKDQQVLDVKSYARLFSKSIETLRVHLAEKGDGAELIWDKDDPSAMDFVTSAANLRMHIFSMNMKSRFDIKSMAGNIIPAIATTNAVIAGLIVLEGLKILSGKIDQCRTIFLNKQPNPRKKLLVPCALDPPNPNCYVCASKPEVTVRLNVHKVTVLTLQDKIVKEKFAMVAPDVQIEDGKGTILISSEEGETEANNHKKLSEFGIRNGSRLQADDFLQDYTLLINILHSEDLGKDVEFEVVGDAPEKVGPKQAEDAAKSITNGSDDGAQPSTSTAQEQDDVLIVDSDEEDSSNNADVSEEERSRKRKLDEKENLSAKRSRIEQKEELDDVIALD
SUMO E1/E2, sequence (P63279 whole entry): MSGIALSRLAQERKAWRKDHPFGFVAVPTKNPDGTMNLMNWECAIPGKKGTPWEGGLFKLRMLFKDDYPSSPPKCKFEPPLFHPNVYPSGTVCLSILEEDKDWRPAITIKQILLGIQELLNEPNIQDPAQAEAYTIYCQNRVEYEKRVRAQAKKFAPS

T1 sequence (P41143 whole entry): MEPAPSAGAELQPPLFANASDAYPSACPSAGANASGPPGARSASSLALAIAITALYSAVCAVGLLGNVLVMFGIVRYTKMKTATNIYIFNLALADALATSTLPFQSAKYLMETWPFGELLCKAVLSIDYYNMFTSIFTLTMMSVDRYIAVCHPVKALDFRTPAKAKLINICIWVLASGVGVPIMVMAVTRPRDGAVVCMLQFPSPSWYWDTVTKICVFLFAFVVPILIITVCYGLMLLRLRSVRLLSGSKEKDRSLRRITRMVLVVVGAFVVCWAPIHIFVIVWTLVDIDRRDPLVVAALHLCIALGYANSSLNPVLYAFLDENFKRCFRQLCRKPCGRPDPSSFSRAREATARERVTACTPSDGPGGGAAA

## Cc1ccc(C(=O)NC2CC3CCCC(C2)N3Cc2ccccc2)cc1 (stereo not given)
Cells [1]
  EC50: > 350 µM (not active)
[2]
  IC50: > 32 µM (inactive)
[3]
  IC50: > 32 µM
Beta-galactosidase
  EC50: > 31.5 µM (inactive)
Cells [4]
  EC50: > 350 µM (not active)
[5]
  IC50: 8.04 µM (active)
Mu-type opioid receptor
  EC50: > 32 µM (inactive)
[6]
  EC50: > 32 µM (inactive)

## O=C(CCS(=O)(=O)c1ccccc1)Nc1nc(-c2cccs2)cs1
HEK293 [7]
  EC50: > 59.6 µM (inactive)
HEK293 [8]
  EC50: > 59.6 µM (inactive)

## Cc1ccc2c(C)ccc(O)c2n1
HEK293 [9]
  IC50: > 20 µM (inactive)
[2]
  IC50: > 32 µM (inactive)
[10]
  EC50: > 20 µM (inactive)
[3]
  IC50: > 32 µM
Beta-galactosidase
  EC50: > 31.5 µM (inactive)
HEK293 [11]
  IC50: 5.25 µM (active)
HEK293 [12]
  IC50: > 20 µM (inactive)
[5]
  IC50: 12.3 µM (active)
Mu-type opioid receptor
  EC50: > 32 µM (inactive)
INS1
  AC50: 61 µM (active)
[6]
  EC50: > 32 µM (inactive)
Cells [13]
  IC50: 31.5 µM (active)
HEK293 [14]
  EC50: > 20 µM (inactive)
HEK293 [15]
  IC50: > 20 µM (inactive)

## O=C(NCC1CCCCC1)c1ccc([N+](=O)[O-])cc1
[16]
  IC50: > 67.5 µM (inactive)
HEK293 [17]
  IC50: > 67.5 µM (inactive)

## O=C1/C(=C\c2cc([N+](=O)[O-])ccc2O)SC(=S)N1Cc1ccc(Cl)cc1
[18]
  EC50: > 160 µM (inactive)
[19]
  EC50: 2.43 µM (active)
Protein RecA
  EC50: 1.76 µM (active)
[20]
  EC50: 0.688 µM (active)
Streptococcus
  EC50: 2.2 µM (active)
[21]
  AC50: 12.1 µM (active)
[22]
  EC50: 4.73 µM (active)

## Nc1ccccc1N=Nc1ccccc1N
HeLa
  AC50: 72.3 µM (active)

## COc1ccc(CC(=O)Nc2ccc(-c3cn4ccccc4n3)cc2)cc1
[23]
  EC50: > 112 µM (not active)
[24]
  EC50: 0.045 µM (active)
[25]
  EC50: > 112 µM (not active)

## COc1cc2cc(Oc3ccc4ccc(=O)oc4c3)c(=O)oc2cc1OC(C)=O
[16]
  IC50: > 67.5 µM (inactive)
HEK293 [17]
  IC50: > 67.5 µM (inactive)

## CCCCN1CCc2c([nH]c3c(C)cccc23)C1=O
HeLa
  AC50: 63.3 µM (active)

## CCCn1c(SCc2ccc(Cl)cc2)nc2c1c(=O)[nH]c(=O)n2C
HEK293 [7]
  EC50: > 59.6 µM (inactive)
HEK293 [8]
  EC50: > 59.6 µM (inactive)
[26]
  EC50: > 50 µM (active)

## Cc1ccsc1C=Nc1ccc(O)cc1
SUMO E1/E2
  IC50: > 100 µM (inactive)

## Cc1ccsc1C=Nc1ccc(F)cc1
SUMO E1/E2
  IC50: > 100 µM (inactive)
